Consider 6 compounds from patent publication US20250281491A1, “DUAL FUNCTIONING IMMUNE MODULATING COMPOUNDS, FORMULATIONS, AND USES THEREOF” (THE REGENTS OF THE UNIVERSITY OF MICHIGAN, priority 2022, published 2025).

A value given as a limit tells only on which side of the number the result lay.

The target of one assay is T1, PI3K β (Homo sapiens, UniProt P42338).
T1 construct: purchased BPS Bioscience (San Diego, CA, USA)
Put plainly: PI3K inhibition assay (BPS Bioscience kit, ADP-Glo luminescence). Conditions: for IC50: purified enzyme. Type of assay: biochemical. The procedure:
(§1) The IC50 of compounds to inhibit different PI3K isoforms were calculated using Prism 8.
(§2) PI3Kα, PI3K β, PI3Kγ, and PI3Kδ binding assay kits were obtained from BPS Bioscience (San Diego, CA, USA). The assays were conducted according to manufacturer's protocols in 96-well microplates. Briefly, 5 μL PI3K lipid substrate was added to all wells. […] 10 μL of PI3Ka (0.5 ng/μL, PI3K β 4 ng/μL, PI3Kγ 4 ng/μL, or PI3Kδ 13 ng/μL) was added to initiate reaction. The plate was carefully shaken, and the reaction mixture was incubated at 30° C. for 40 minutes. Then 25 μL ADP-Glo reagent (Promega, Madison, WI, USA) was added to each well and the reactions were performed in darkness for 45 minutes. Finally, 50 μL of kinase detection reagent (Promega, Madison, WI, USA) was added to each well and the reactions were performed in darkness for 30 minutes. The luminescence of the reaction mixture was read on a Synergy 2 microplate reader (Biotek).
On the technique in general: ADP-Glo first removes unused ATP, then detects ADP through luciferase.

The target in the next assay is T2, PI3Kα (Homo sapiens, UniProt P42336).
T2 construct: purchased BPS Bioscience (San Diego, CA, USA)
T2 sequence (P42336 whole entry): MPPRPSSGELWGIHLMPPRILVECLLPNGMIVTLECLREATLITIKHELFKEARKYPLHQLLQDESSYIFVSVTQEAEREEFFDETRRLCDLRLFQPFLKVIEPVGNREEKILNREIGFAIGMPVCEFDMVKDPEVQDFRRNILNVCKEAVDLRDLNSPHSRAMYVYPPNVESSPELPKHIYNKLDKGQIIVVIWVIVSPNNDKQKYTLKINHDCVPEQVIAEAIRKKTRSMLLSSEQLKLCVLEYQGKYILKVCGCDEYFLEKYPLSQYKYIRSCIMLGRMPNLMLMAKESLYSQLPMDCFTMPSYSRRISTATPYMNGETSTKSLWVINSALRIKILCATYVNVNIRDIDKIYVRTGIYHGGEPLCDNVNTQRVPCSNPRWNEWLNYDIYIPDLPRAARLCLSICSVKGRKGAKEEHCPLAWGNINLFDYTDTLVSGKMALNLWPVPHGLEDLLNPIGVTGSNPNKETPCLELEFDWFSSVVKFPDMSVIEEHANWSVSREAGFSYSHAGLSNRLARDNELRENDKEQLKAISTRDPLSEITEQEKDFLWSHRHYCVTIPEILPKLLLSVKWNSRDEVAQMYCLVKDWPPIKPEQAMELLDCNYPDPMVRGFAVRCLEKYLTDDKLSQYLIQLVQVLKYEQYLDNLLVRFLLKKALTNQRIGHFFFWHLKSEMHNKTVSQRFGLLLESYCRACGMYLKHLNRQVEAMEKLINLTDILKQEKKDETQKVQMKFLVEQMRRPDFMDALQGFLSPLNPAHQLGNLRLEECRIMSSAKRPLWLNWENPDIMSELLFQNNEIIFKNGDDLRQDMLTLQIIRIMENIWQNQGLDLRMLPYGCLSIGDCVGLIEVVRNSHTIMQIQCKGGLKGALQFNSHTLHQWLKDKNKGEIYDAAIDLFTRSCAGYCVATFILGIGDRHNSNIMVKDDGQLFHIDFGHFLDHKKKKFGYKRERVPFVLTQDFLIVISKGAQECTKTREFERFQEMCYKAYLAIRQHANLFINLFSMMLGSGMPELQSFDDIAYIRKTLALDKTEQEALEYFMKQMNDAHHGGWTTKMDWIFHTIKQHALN
T2 sequence (P27986 whole entry partner): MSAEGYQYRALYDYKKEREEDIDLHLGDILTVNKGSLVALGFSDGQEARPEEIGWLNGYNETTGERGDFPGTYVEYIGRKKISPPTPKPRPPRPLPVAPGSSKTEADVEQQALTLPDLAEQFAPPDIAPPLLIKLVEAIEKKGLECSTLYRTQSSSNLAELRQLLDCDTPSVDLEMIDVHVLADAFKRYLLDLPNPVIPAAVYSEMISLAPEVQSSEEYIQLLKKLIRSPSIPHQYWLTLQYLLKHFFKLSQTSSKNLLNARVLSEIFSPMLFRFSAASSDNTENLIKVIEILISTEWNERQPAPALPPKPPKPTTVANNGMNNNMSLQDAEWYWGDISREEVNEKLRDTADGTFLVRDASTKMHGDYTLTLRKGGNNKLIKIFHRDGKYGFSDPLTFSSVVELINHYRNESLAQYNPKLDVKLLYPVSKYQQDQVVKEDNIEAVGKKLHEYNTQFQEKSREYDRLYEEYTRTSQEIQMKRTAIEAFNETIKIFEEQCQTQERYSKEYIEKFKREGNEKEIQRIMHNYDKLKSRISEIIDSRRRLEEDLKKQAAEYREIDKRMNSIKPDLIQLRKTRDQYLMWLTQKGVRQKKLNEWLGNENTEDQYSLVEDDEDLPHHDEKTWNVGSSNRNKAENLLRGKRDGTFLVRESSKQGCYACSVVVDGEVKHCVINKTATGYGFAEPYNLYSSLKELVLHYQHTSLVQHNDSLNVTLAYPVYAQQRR
The assay is described as above. It is filed as biochemical. Conditions: for IC50: purified enzyme. The procedure:
as §1, §2

The next assay addresses T3, PI3Kγ (Homo sapiens, UniProt P48736).
T3 construct: purchased BPS Bioscience (San Diego, CA, USA)
The description is as above. Type of assay: biochemical. Conditions: for IC50: purified enzyme. The procedure: as §1, §2

In the next assay the target is T4, PI3Kδ (Homo sapiens, UniProt O00329).
T4 construct: purchased BPS Bioscience (San Diego, CA, USA)
T4 sequence (O00329 whole entry): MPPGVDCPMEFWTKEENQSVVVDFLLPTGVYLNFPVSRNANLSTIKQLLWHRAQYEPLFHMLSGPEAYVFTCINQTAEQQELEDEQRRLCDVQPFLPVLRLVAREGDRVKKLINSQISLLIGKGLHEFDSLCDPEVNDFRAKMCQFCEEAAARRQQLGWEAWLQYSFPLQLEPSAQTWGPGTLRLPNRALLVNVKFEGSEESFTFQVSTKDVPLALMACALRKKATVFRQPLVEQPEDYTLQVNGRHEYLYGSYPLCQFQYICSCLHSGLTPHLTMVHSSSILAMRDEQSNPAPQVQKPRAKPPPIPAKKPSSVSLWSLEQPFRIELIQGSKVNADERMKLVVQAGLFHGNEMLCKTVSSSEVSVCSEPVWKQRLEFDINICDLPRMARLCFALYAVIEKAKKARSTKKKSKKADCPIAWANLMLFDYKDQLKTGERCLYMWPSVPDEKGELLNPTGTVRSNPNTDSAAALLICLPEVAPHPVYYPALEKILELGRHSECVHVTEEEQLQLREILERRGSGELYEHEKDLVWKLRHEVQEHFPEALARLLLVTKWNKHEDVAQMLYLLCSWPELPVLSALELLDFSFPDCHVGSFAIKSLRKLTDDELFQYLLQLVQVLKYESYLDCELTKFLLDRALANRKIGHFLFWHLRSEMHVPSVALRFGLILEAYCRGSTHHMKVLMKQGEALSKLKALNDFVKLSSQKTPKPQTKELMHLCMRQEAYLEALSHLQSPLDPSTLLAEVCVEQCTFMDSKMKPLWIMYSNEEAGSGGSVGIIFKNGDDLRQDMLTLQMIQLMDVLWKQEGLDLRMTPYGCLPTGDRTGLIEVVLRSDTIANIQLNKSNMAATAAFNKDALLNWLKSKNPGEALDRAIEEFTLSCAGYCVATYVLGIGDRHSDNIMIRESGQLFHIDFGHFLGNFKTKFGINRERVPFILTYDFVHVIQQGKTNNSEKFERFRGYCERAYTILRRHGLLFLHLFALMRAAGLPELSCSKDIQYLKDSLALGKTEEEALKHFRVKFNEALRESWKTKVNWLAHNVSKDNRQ
T4 sequence (P27986 whole entry partner): as the sequence (P27986 whole entry partner) above
The description is as above. Type of assay: biochemical. Conditions: for IC50: purified enzyme. The procedure: as §1, §2

In a further assay the test system is STING. Briefly: STING activation in THP-1 ISG Blue cells (QUANTI-Blue, OD 655). Type of assay: cell-based. Conditions: 24 hours, FIG. 1. The protocol: FIG. 1 is a graph of STING activation for different concentrations of compounds as determined by incubating with THP-1 ISG Blue cells for 24 hours, mixing with ‘QUANTI-Blue’ solution and measuring OD 655.
FIG. 2 is a graph of STING activation for different concentrations of DMA01-166 as determined by incubating with THP-1 ISG Blue cells for 24 hours, mixing with ‘QUANTI-Blue’ solution and measuring OD 655.
FIG. 3 is a graph of STING activation for different concentrations of MSA-2 as determined by incubating with THP-1 ISG Blue cells for 24 hours, mixing with ‘QUANTI-Blue’ solution and measuring OD 655.
THP-1 ISG Blue cells analysis is a standard assay to test STING activation in vitro. […] Different concentrations of DMA01-166 (FIG. 2) and MSA-2 (FIG. 3) were incubated with THP-1 ISG Blue cells for 24 hours.

Assay [1] relates to mouse bone marrow derived dendritic cells (BMDCs). Put plainly: BMDC activation, upregulation of CD80 and CD86 by flow cytometry. Type of assay: cell-based. Conditions: 24 hours. The protocol: FIG. 5 are graphs of BMDC activation as measured based on the upregulation of CD80 and CD86 by flow cytometry for different concentrations of DMA01-166 incubated with mouse bone marrow derived dendritic cells (BMDCs) for 24 hours.
STING activation induces BMDC activation. To test the ability of DMA01-166 in activating BMDC, BMDCs activation was measured based on the upregulation of CD80 and CD86 by flow cytometry. […] Different concentrations of DMA01-166 were incubated with BMDC cells for 24 hours.

Assay [2] has the same test system. Put plainly: mIFNβ secretion from BMDCs by ELISA. Conditions: 24 hours; for mIFNβ secretion: BMDC supernatants, 10 μM, FIG. 6. Type of assay: cell-based. The protocol: FIG. 7 a graph of mIFNβ concentrations as measured by ELISA from the supernatants of mouse bone marrow derived dendritic cells (BMDCs) incubated with different concentrations of DMA01-166 for 24 hours.
STING activation in BMDC results in mIFNβ secretion. […] Different concentrations of DMA01-166 (FIG. 7) were incubated with BMDC cells for 24 hours.
In general terms: In an ELISA, binding on a coated surface is turned into a signal by an enzyme label.

For assay [3], the system named is M2 polarized RAW264.7 cells. Briefly: M1 macrophage ratio (CD80 and CD86, flow cytometry) from M2 polarized RAW264.7 cells. It is filed as cell-based. Conditions: 2 days; for M1 macrophage percentage among all the macrophages: 10 μM, FIG. 9. The procedure: FIG. 10 is a graph of M1 macrophage ratio as determined by measuring CD80 and CD86 as markers for M1 macrophage by flow cytometry from M2 polarized RAW264.7 cells incubated with different concentrations of DMA01-166 for 2 days.
Macrophage polarization effects of the dual functioning NCEs were further tested by first inducing RAW264.7 cells to M2 macrophage, and then treating with different drugs to test the M1 macrophage percentage among all the macrophages.
On the technique in general: In flow cytometry, cells or beads pass a laser one at a time.

The subject of assay [4] is M2 polarized RAW264.7 cells. Put plainly: TNFα secretion from M2 polarized RAW264.7 cells by ELISA (macrophage polarization). Conditions: 10 μM, 2 days, vs M2 control group, FIG. 8.
For assay [5], the system named is KPC transgenic pancreatic cancer model. Briefly: In vivo efficacy on KPC transgenic pancreatic cancer model. Conditions: FIG. 13. The procedure: FIG. 13 is a graph of the in vivo efficacy on KPC transgenic pancreatic cancer model of an exemplary albumin nanoformulations of: DMA01-166 (D166) and DMA01-166 plus PD-1 antibody (D166+PD-1) with and without paclitaxel (Nano-P).
The in vivo efficacy of DMA01-166 and its albumin nanoformulation was tested on KPC transgenic model.

T1 sequence (P42338 whole entry): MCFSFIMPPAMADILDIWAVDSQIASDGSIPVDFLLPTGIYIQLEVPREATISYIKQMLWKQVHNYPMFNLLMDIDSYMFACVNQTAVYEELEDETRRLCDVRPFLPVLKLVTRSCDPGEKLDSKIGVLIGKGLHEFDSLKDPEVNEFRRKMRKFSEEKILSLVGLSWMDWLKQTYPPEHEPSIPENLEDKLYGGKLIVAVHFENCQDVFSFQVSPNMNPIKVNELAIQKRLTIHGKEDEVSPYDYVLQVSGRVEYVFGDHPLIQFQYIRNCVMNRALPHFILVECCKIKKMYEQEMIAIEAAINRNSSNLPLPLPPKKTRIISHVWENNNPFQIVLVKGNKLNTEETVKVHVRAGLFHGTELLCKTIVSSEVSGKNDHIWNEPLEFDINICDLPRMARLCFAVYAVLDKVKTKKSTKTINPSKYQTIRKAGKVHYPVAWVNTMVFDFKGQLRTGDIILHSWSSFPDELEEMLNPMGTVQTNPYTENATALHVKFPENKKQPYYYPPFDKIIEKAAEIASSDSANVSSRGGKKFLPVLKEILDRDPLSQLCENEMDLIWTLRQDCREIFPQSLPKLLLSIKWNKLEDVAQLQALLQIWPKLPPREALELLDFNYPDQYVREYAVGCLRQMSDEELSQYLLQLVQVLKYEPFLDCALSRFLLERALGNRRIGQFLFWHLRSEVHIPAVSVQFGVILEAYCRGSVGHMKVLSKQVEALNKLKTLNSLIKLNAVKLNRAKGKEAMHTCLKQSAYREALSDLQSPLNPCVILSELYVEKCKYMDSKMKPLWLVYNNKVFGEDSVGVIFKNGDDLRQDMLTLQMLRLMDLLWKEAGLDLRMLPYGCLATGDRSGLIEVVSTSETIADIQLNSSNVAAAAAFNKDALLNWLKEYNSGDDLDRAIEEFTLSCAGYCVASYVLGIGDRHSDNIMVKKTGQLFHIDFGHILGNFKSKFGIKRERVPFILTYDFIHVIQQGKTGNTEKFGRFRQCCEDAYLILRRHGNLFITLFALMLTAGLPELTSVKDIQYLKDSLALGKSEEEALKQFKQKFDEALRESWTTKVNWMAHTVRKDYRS
T1 sequence (P27986 whole entry partner): as the sequence (P27986 whole entry partner) above
T3 sequence (P48736 whole entry): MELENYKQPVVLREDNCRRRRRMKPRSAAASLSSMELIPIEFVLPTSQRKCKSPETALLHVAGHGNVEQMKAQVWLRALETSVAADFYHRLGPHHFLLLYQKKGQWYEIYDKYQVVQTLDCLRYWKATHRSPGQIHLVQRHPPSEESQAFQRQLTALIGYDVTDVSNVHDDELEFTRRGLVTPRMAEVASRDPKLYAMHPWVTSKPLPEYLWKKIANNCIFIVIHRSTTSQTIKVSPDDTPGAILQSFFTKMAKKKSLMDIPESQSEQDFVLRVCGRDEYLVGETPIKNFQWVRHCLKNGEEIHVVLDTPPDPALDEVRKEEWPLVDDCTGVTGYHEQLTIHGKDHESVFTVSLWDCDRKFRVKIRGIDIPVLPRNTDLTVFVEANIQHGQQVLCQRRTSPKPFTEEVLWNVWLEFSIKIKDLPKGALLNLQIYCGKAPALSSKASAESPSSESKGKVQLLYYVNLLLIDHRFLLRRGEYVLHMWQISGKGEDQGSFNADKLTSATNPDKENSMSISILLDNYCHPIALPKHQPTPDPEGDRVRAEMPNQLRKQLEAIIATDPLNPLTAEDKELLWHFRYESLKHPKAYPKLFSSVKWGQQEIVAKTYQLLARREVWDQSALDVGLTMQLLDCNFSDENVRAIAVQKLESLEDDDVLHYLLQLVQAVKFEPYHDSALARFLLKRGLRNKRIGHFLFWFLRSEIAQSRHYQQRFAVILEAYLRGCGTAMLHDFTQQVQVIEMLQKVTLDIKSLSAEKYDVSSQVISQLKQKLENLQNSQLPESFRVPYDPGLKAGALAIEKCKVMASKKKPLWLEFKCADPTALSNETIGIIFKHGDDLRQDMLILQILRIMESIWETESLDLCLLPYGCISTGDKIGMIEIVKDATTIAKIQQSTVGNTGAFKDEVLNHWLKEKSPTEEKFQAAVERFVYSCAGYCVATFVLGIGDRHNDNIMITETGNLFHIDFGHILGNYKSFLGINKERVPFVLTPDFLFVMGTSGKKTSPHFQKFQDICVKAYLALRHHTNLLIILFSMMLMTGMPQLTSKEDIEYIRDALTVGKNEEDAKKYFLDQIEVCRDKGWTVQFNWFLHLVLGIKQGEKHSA

Take `CCOC(=O)Cn1cc(-c2cccc3cc([C@H](C)NC(=O)c4c(N)nn5cccnc45)n(-c4ccccc4)c(=O)c23)nn1` [DMA01-132]: the half-inhibitory concentration (IC50) at PI3K β was determined as 374 nM; at PI3Kα, 372 nM; at PI3Kγ it was 0.845 nM; on PI3Kδ, 0.381 nM. Besides, at PI3Kγ, the “Inhibition of PI3Kγ (in words)” value was “inhibited both PI3Kγ and PI3Kδ”. Moreover, the “Inhibition of PI3Kδ (in words)” value on PI3Kδ was “inhibited both PI3Kγ and PI3Kδ”.
In the case of `C[C@H](NC(=O)c1c(N)nn2cccnc12)c1cc2cccc(-c3cn(CC(=O)O)nn3)c2c(=O)n1-c1ccccc1` [DMA01-143, (S)-2-(4-(3-(1-(2-aminopyrazolo[1,5-a]pyrimidine-3-carboxamido)ethyl)-1-oxo-2-phenyl-1,2-dihydroisoquinolin-8-yl)-1H-1,2,3-triazol-1-yl) acetic acid], the IC50 on PI3K β was 312 nM; at PI3Kα, 409 nM; at PI3Kγ it was 5.34 nM; on PI3Kδ it was 1.36 nM. Also, the “Inhibition of PI3Kγ (in words)” value on PI3Kγ is “inhibited both PI3Kγ and PI3Kδ”. For the same compound, the “Inhibition of PI3Kδ (in words)” value at PI3Kδ is “inhibited both PI3Kγ and PI3Kδ”.
Turning to `C[C@@H](NC(=O)c1c(N)nn2cccnc12)c1cc2cccc(-c3cn(CCOC(=O)[C@H](N)Cc4cn(C)c5ccccc45)nn3)c2c(=O)n1-c1ccccc1` [DMA01-173, 2-(4-(3-((R)-1-(2-aminopyrazolo[1,5-a]pyrimidine-3-carboxamido)ethyl)-1-oxo-2-phenyl-1,2-dihydroisoquinolin-8-yl)-1H-1,2,3-triazol-1-yl)ethyl 1-methyl-D-tryptophanate], the “STING activation (interferon signal)” value with STING was “did not stimulate STING activation”. Moreover, the “BMDC activation (upregulation of CD80 and CD86)” value in [1] (10 μM, FIG. 4) is “did not stimulate DC activation”. Also, the mIFNβ secretion result in [2] was “cannot enhance mIFNβ secretion”. The “M1 macrophage percentage among all the macrophages” value in [3] is “mild effects on increasing M1 percentage”. Further, the “Macrophage polarization (TNFα secretion)” value in [4] was “showed macrophage polarization effects compared to M2 control group”.
For `C[C@H](NC(=O)c1c(N)nn2cccnc12)c1cc2cccc(-c3cn(CCO)nn3)c2c(=O)n1-c1ccccc1` [DMA01-148], the IC50 at PI3K β was 548 nM; at PI3Kα it was 1050 nM; on PI3Kγ, 0.864 nM; at PI3Kδ it was 15.4 nM. Further, on PI3Kγ, the “Inhibition of PI3Kγ (in words)” value is on record as “selectively inhibited PI3Kγ, with similar efficacy compared to IPI-549”.
With `CCCCC/C=C/C/C=C\CCCCCCCC(=O)OCCn1cc(-c2cccc3cc([C@@H](C)NC(=O)c4c(N)nn5cccnc45)n(-c4ccccc4)c(=O)c23)nn1` [DMA01-170, 2-(4-(3-((R)-1-(2-aminopyrazolo[1,5-a]pyrimidine-3-carboxamido)ethyl)-1-oxo-2-phenyl-1,2-dihydroisoquinolin-8-yl)-1H-1,2,3-triazol-1-yl)ethyl (9Z,12E)-octadeca-9,12-dienoate], the “M1 macrophage percentage among all the macrophages” value in assay [3] is reported as “mild effects on increasing M1 percentage”. Also, the “Macrophage polarization (TNFα secretion)” value in assay [4] is reported as “showed macrophage polarization effects compared to M2 control group”.
Regarding `COc1cc2cc(C(=O)CCC(=O)OCCn3cc(-c4cccc5cc([C@@H](C)NC(=O)c6c(N)nn7cccnc67)n(-c6ccccc6)c(=O)c45)nn3)sc2cc1OC` [DMA01-166, (R)-2-(4-(3-(1-(2-aminopyrazolo[1,5-a]pyrimidine-3-carboxamido)ethyl)-1-oxo-2-phenyl-1,2-dihydroisoquinolin-8-yl)-1H-1,2,3-triazol-1-yl)ethyl 4-(5,6-dimethoxybenzo[b]thiophen-2-yl)-4-oxobutanoate], on PI3K β, the “Inhibition of PI3K β (in words)” value is “no effect”. In addition, the IC50 is over 10000 nM at PI3K β, over 10000 nM on PI3Kα, 349 nM on PI3Kγ and 1250 nM on PI3Kδ. In addition, the “Inhibition of PI3Kα (in words)” value at PI3Kα is “no effect”. The “STING activation (interferon signal)” value in the assay with STING was “enhanced interferon signal compared to control and cGAMP group”. Moreover, the “BMDC activation at different concentrations” value in assay [1] (FIG. 5) is given as “dose independent BMDC activation effect”. Moreover, the mIFNβ secretion entry in [2] is given as “higher mIFNβ secretion compared to MSA-2”. Also, in assay [2] (BMDC, FIG. 7), the “mIFNβ secretion at different concentrations” value is listed as “dose independent BMDC activation effect”. The “M1 macrophage percentage among all the macrophages” value in assay [3] was “higher percentage of M1 macrophage compared to IPI-549, cGAMP, ADU and MSA-2”. In addition, the “Macrophage polarization (M1 ratio) at different concentrations” value in [3] (FIG. 10) is “dose independent macrophage polarization effect”. In assay [5], this compound had a Median survival of 157.5 days.

What is called IC50 is the concentration that gives 50% inhibition.
